Assays:
[1] = tested on: ex vivo bradyzoites of the Pru strain from chronically infected mice; experiment: Ex vivo bradyzoite viability assay, Pru; assay type: cell-based, Toxoplasma gondii; details: 3x EC50
Experimental: (§1) Brains of chronically infected mice were collected, homogenized with seven strokes in a glass homogenizer, and then enumerated on a Delta Vision microscope [protocol adapted from reference ([45])]. Twenty-five cysts per plate were then placed in a tube for acid/pepsin (170 mM sodium chloride, 60 mM hydrochloric acid, and 0.1 mg/mL pepsin) treatment for 10 minutes in a 37°C water bath. The cysts were then neutralized with 94 mM Na2CO3. The liberated bradyzoites were then equally distributed into a 12-well plate. For the growth assay, the cells were grown in the presence of compounds or DMSO for 12 and 14 days undisturbed. For the viability assays, the cells were treated with compounds or DMSO for 4 hours before being washed with 1× PBS and then grown for 12 and 14 days in media without compounds. After 12 and 14 days, the cells were fixed with 100% ethanol and stained with 2.5× crystal violet. The control DMSO plaque image is duplicated from Fig. 2B to be used as the representative image of plaques in Fig. 2A. Plaques were quantified on a light microscope using the 4× objective and the size of the plaques was measured using Fiji (ImageJ) software.

[2] = tested on: Pru-GFP brain tissue cysts in Balb/c mice; experiment: Treatment of Balb/c mice chronically infected with Pru-GFP; details: Balb/c mice, 1,500 Pru-GFP i.p., 5 mg/kg/day i.p. for 16 days from 28 dpi
Experimental: BALB/c male mice (Jackson Laboratory) were injected i.p. with a 200 µL suspension of 1,500 tachyzoites of the Pru-GFP strain T. gondii (type II genotype) (a gift from Laura Knoll). […] At 4 weeks post-infection, the brains of two mice were collected to check for the presence of cysts and to confirm that the mice were in the chronic stage. At this time, the remaining mice were injected i.p. daily for 16 consecutive days with 200 µL solvent (10% Kolliphor HS-15) or compounds dissolved in 10% HS-15. […] Mice were euthanized humanely 2 weeks after the final injection. The mouse brains were collected in 1 mL sterile PBS, minced with scissors, and homogenized using a glass homogenizer. Four 20 µL samples (80 µL total or 8% of sample) of each brain homogenate were placed on a glass microscope slide. Cysts were enumerated using a Delta Vision fluorescence microscope.

T. gondii tachyzoites = experiment: EC50 against tachyzoites indicated in Fig. 1E, used to set 3x and 5x concentrations; details: Toxoplasma gondii, read-out: indicated EC50 (shown in parentheses, Fig. 1E)
[3] = tested on: Me49-RFP brain tissue cysts in Swiss Webster mice; experiment: Treatment of Swiss Webster mice chronically infected with Me49-RFP; assay type: in vivo, Toxoplasma gondii; details: Swiss Webster mice, 5,000 Me49-RFP i.p.
T. gondii ATQ^R R4 = experiment: In vitro growth inhibition, atovaquone resistant strain R4; assay type: cell-based; details: Toxoplasma gondii, read-out: EC50 ATQ^R R4, atovaquone resistant strain R4
Experimental: (§2) Experiments with T. gondii tachyzoites were carried out with parasites expressing a td-Tomato RFP ([48], [49]). For drug testing and growth assays, parasites were purified by passing them through a 25-gauge needle, followed by filtration through a 5 µm filter. Human fibroblasts were cultured in 96-well black plates for 48 (hTERT) or 120 (HFF) hours prior to the addition of 4,000 (type I) or 8,000 (type II) fluorescent tachyzoites per well. Fluorescence values were measured for up to 7 days (type I) and 21 days (type II), and both excitation (544 nm) and emission (590 nm) were read from the bottom of the plates in a Molecular Devices plate reader ([36]). The EC50s were calculated using GraphPad Prism software.

[4] = tested on: ex vivo bradyzoites of Me49-RFP from brains of chronically infected mice; experiment: Ex vivo bradyzoite viability assay, Me49-RFP; assay type: cell-based, Toxoplasma gondii; details: inhibitors 4 hours then drug-free 14 days, 3x EC50
Experimental: as §1

T. gondii ATQ^R R5 = experiment: In vitro growth inhibition, atovaquone resistant strain R5; assay type: cell-based; details: Toxoplasma gondii, read-out: EC50 ATQ^R R5
Experimental: as §2

[5] = tested on: T. gondii Pru strain (type II) tachyzoites; experiment: In vitro growth inhibition of red fluorescent tachyzoites, Pru strain; assay type: cell-based, Toxoplasma gondii; details: tachyzoite growth
Experimental: as §2

[6] = tested on: type I/III EGS strain cysts; experiment: Vacuole size of spontaneously formed EGS cysts; assay type: cell-based, Toxoplasma gondii; details: EGS spontaneous cysts, 3x EC50, 4 days
Experimental: (§3) Type II Me49 or Pru was differentiated using compound 1 as previously described ([50]). Confluent HFF monolayers on glass coverslips (preincubated for 2 hours with 3 µM compound 1, as described previously) were infected with 5 × 10^3 tachyzoites of the ME49 or Pru (type 2) or EGS (type I/III) strain (no compound 1 for EGS). The cells were allowed to grow and differentiate in a 37°C incubator with ambient CO2 for 3 days (EGS was allowed to spontaneously differentiate for 4 days). […] After 7 days (Me49) or 8 days (EGS) of incubation, the cells were fixed with 3% paraformaldehyde for 10 minutes, permeabilized with 0.25% Triton X-100 for 10 minutes, and then blocked in 3% bovine serum albumin for 1 hour. The coverslips were then incubated in DBA rhodamine (for Me49)([51]) or DBA lectin (a kind gift from Diego Huet for EGS) and anti-SAG1 rat antibody (a kind gift from Vern Carruthers) for 2 hours. Then, the secondary anti-rat 488 was used to visualize the SAG1 antibody. The cells were then mounted onto microscope slides with fluoromount and DAPI (4′,6-diamidino-2-phenylindole). The slides were placed in the fridge for a minimum of 24 hours before imaging on a Delta Vision microscope. The vacuole sizes were calculated using ImageJ software.

[7] = tested on: T. gondii Me49 strain (type II) tachyzoites; experiment: In vitro growth inhibition of red fluorescent tachyzoites, Me49 strain; assay type: cell-based; details: Toxoplasma gondii, tachyzoite growth
Experimental: as §2

[8] = tested on: Human Foreskin Fibroblasts (HFF); experiment: Cytotoxicity on HFF cells (Alamar Blue); assay type: cell-based
Experimental: (§4) The cytotoxicity was tested using an Alamar Blue assay as described by Recher et al. ([49]).

C2C12 myoblasts = experiment: Cytotoxicity on C2C12 myoblasts (Alamar Blue); assay type: cell-based
Experimental: as §4

[9] = tested on: in vitro differentiated Me49 bradyzoites (cysts); experiment: Vacuole size of in vitro differentiated Me49 cysts (DBA/SAG1 IFA); assay type: cell-based, Toxoplasma gondii; details: positive control, concentration not stated in the sentence (Fig. 1C: 3x and 5x EC50)
Experimental: as §3

[10] = tested on: hyperactivity of Balb/c mice chronically infected with Pru-GFP; experiment: CageDot continuous monitoring of mouse activity during chronic infection; details: 5 mg/kg/day i.p. 16 days, 15 dpt and 2 wpt
Experimental: At this time, the remaining mice were injected i.p. daily for 16 consecutive days with 200 µL solvent (10% Kolliphor HS-15) or compounds dissolved in 10% HS-15. […] Mice were euthanized humanely 2 weeks after the final injection.
Mice were monitored during the infection using the CageDot ([30], [31]), which detects vibrations. […] Data are collected at a 100 Hz sampling rate (each second, 100 data points were collected).

[11] = tested on: in vitro derived Pru cysts; experiment: Vacuole size of in vitro derived Pru cysts; assay type: cell-based, Toxoplasma gondii
Experimental: as §3

[12] = tested on: ex vivo bradyzoites of Me49-RFP from brains of chronically infected mice; experiment: Ex vivo bradyzoite growth assay, Me49-RFP; assay type: cell-based, Toxoplasma gondii; details: inhibitors present 14 days, 3x EC50
Experimental: as §1

[13] = tested on: toxoplasmosis relapse in patients; details: after 6 years of therapy; cited from earlier work
[14] = tested on: ex vivo bradyzoites of the Pru strain from chronically infected mice; experiment: Ex vivo bradyzoite growth assay, Pru; assay type: cell-based, Toxoplasma gondii; details: 3x EC50
Experimental: as §1

[15] = tested on: Me49-RFP brain tissue cysts in CBA/j mice; assay type: in vivo, Toxoplasma gondii; details: 500 Me49-RFP i.p., 5 mg/kg/day i.p. for 16 days from 28 dpi, brains 2 weeks after treatment
Experimental: CBA/j female mice (Jackson Laboratory) were injected i.p. with a 200 µL suspension of 500 tachyzoites of the Me49-RFP strain T. gondii (type II genotype). […] At 4 weeks post-infection, the brains of two mice were collected to check for the presence of cysts and to confirm that the mice were in the chronic stage. At this time, the remaining mice were injected i.p. daily for 16 consecutive days with 200 µL solvent (10% Kolliphor HS-15) or compounds dissolved in 10% HS-15. […] Mice were euthanized humanely 2 weeks after the final injection. The mouse brains were collected in 1 mL sterile PBS, minced with scissors, and homogenized using a glass homogenizer. Four 20 µL samples (80 µL total or 8% of sample) of each brain homogenate were placed on a glass microscope slide. Cysts were enumerated using a Delta Vision fluorescence microscope.

[16] = tested on: T. gondii RH strain (type I) tachyzoites; experiment: In vitro growth inhibition of red fluorescent tachyzoites, RH strain; assay type: cell-based; details: Toxoplasma gondii, tachyzoite growth
Experimental: as §2

## O=C1C(O)=C([C@H]2CC[C@H](c3ccc(Cl)cc3)CC2)C(=O)c2ccccc21 [Atovaquone]
[1]
  number of plaques, ex vivo viability: significant reduction in the number of plaques
[2]
  reduction of cyst burden: 71.9%
T. gondii tachyzoites
  EC50: 10 nM
[3]; ATQ at 5 mg/kg daily for 16 days
  reduction of cyst burden: 65.5%
[3]; daily treatment 16 days
  cyst size: reduced the size of the cysts
T. gondii ATQ^R R4
  EC50: 1900 nM
[4]
  number of plaques, ex vivo viability: only a minimal impact on viability
T. gondii ATQ^R R5
  EC50: 1030 ± 290 nM
[5]
  EC50: 4.17 ± 2.34 nM
[6]
  size of the vacuoles (cysts): reduced the size of the vacuoles
[7]
  EC50: 1.53 ± 0.229 nM
[8]; 4X EC50
  % Inhibition on HFF: 4.69 ± 2.56%
[8]; 10X EC50
  % Inhibition on HFF: 7.23 ± 2.29%
C2C12 myoblasts; 4X EC50
  % Inhibition on C2C12: 2.61 ± 4.48%
C2C12 myoblasts; 10X EC50
  % Inhibition on C2C12: 6.84 ± 5.34%
[9]
  vacuole size: reduced vacuole size
[10]
  activity of infected mice (nightly average energy, CageDot): decreased the activity of the infected mice to similar levels of the control uninfected mice
[11]
  vacuole size: decreased the vacuole size
[12]
  number of plaques, ex vivo growth: effective against bradyzoite growth
[13]
  patients experiencing relapse: up to 75%
[14]
  number of plaques, ex vivo growth: significant reduction in the number of plaques
[15]
  reduction in the number of cysts compared to the control: 56.6%

## CCc1nc(N)nc(N)c1-c1ccc(Cl)cc1 [Pyrimethamine]
[16]
  EC50: 383 ± 78 nM
T. gondii ATQ^R R4
  EC50: 22.1 ± 3.52 nM
T. gondii ATQ^R R5
  EC50: 5.23 ± 0.221 nM
[5]; Toxoplasma gondii
  EC50: 43.2 ± 2.58 nM
[7]
  EC50: 1.67 ± 0.268 nM
[8]; 4X EC50
  % Inhibition on HFF: 0.38 ± 2.61%
[8]; 10X EC50
  % Inhibition on HFF: 6.18 ± 0.98%
C2C12 myoblasts; 4X EC50
  % Inhibition on C2C12: 2.39 ± 3.50%
C2C12 myoblasts; 10X EC50
  % Inhibition on C2C12: 6.57 ± 1.31%

— paper PMC11558998, “Lipophilic bisphosphonates reduced cyst burden and ameliorated hyperactivity of mice chronically infected with Toxoplasma gondii” (mBio, 2024)
